The values that follow come from article PMC10787880, “Structural and functional characterization of a new thermophilic-like OYE from Aspergillus flavus” (Applied Microbiology and Biotechnology, 2024).

Molecules are shown by their SMILES.

The target of this test is T1, AfOYE1 (Aspergillus flavus, UniProt B8N8Q9).
T1 construct: gene afvA; codon-optimised gene in pET28b, E. coli BL21(DE3); N-terminal His6-TEV tag, cut by TEV protease; about 43 kDa; dimer in the crystal; non-covalent FMN
In words: X-ray crystal structure […] Å; UV-visible spectrum of released flavin. In kind it is binding. The following applies: non-covalent prosthetic group, active site; chloride and ethylene glycol also in site.

T1 sequence (B8N8Q9 whole entry): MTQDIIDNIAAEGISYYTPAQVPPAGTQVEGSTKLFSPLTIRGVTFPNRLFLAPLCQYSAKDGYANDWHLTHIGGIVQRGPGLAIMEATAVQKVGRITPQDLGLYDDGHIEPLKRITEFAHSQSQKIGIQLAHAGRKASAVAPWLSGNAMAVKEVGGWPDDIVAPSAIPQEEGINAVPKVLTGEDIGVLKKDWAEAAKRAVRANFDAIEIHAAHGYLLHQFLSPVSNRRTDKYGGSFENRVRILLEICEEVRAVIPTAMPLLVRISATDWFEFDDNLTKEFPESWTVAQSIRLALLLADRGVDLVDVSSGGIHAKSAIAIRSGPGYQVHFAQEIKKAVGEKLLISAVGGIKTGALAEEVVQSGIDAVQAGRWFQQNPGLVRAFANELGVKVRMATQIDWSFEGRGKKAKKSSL

For `Cc1cc2nc3c(=O)[nH]c(=O)nc-3n(C[C@H](O)[C@H](O)[C@H](O)COP(=O)(O)O)c2cc1C` [FMN], the “X-ray crystal structure 1.55 Å; UV-visible spectrum of released flavin” value was “On the top of the β-barrel core of each monomer encircles one FMN cofactor”.
